# Source: US20190119357A1, “MESSENGER RIBONUCLEIC ACIDS FOR THE PRODUCTION OF INTRACELLULAR BINDING POLYPEPTIDES AND METHODS OF USE THEREOF” (ModernaTX, Inc., priority 2015, published 2019)
# Legend:
# systemic TF1a xenografts = experiment: Systemic TF1a xenografts in SCID mice (AML model); type: in vivo; details: TF1a-SCID; mRNA LNPs 3 mg/kg one time per week, cytarabine 2 mg/kg three times per week, IV, four weeks
# Experimental: LNPs comprising the cationic lipid MC3 were tested using the optimal percentage of PEG-lipid and optimal PEG length (1.5% DSPE, C18, as described in Example 8), for in vivo targeted delivery of SQT-PUMA-BH3 in two different in vivo models of acute myeloid leukemia (AML). One model used systemic TF1a xenografts in SCID mice. The other model used systemic HEL xenografts in SCID mice. Each of these models uses a human erythroleukemia cell line. The HEL erythroleukia cell line is described in, for example, Martin, P. and Papayannopoulou, T. (1982) Science 216:1233-1235. The TF1 erythroleukmia cell line (from which TF1a is derived) is described in, for example, Kitamura, T. et al. (1989) J. Cell. Physiol. 140:323-334. Unless otherwise noted, mRNAs were fully modified with N1-methlypseudouridine to avoid stimulating an innate immune response to said mRNAs when administered in vivo.
# In a first set of experiments, TF1a cells stably expressing luciferase (TF1α-luc cells) were implanted systemically in SCID mice. Tumor growth was measured by whole body bioluminescent imaging (BLI) in anaesthetized animals following SC injection of 150 mg/kg D-Luciferin, in an imaging chamber (Spectrum CT). Animals showing an increasing tumor burden at day 12 post-cell implantation were recruited for treatment. […]
# Hep3B SC tumors = experiment: Combination with sorafenib in SCID mice bearing Hep3B SC tumors; type: in vivo; details: Sorafenib 10 mg/kg orally daily alone, three weeks, end of study
# Experimental: SCID mice bearing Hep3B SC tumors (tumor size range 140-227 mm^3; average=183 mm^3) were dosed over a three week period with a combination of 0.5% methyl cellulose daily and SQT IV at 1.5 mg/kg alone weekly (Days 1, 8 and 15; Group 1), Sorafenib (in 0.5% methyl cellulose) at 10 mg/kg orally daily alone (Group 2), mmRNA encoding SQT-PUMA-BH3 (comprising a miR122 binding site) weekly at 1.5 mg/kg IV alone (Group 3) or a combination of mmRNA encoding SQT-PUMA-BH3 (with miR122 binding site) at 1.5 mg/kg IV weekly with sorafenib at 10 mg/kg orally daily (Group 4; 10 animals per group).
# MCL1 = MCL1 downregulation by Western blotting in Hep3B cells; type: cell-based, human; details: 24 hours, sorafenib 10 uM
# Experimental: A first series of experiments was conducted to determine whether specific targeting of MCL1 recapitulates sorafenib synergy with SQT-BH3 in cells in vitro.
Compound,systemic tumor growth (BLI) (systemic TF1a xenografts),tumor growth inhibition (TGI) (Hep3B SC tumors),MCL1 level (Western blotting) (MCL1)
"Nc1ccn([C@@H]2O[C@H](CO)[C@@H](O)[C@@H]2O)c(=O)n1 [cytarabine, reference compound]",did inhibit systemic tumor growth,,
"CNC(=O)c1cc(Oc2ccc(NC(=O)Nc3ccc(Cl)c(C(F)(F)F)c3)cc2)ccn1 [sorafenib, reference compound]",,38%,downregulates MCL1
